Measurements as given in PubChem BioAssay (NCI).
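Compound exposure: 48 hours, 5 concentrations, 96-well plates. Abbreviation: GI50, concentration required for 50% inhibition of growth. TGI: total growth inhibition.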

Key:
Assay in all cases: NCI tumour cell line growth inhibition, 48 h
786-0 renal = system: 786-0 renal
A498 renal = system: A498 renal
A549 NSCLC = system: A549 NSCLC
ACHN renal = system: ACHN renal
BT-549 breast = system: BT-549 breast
CAKI-1 renal = system: CAKI-1 renal
CCRF-CEM leukemia = system: CCRF-CEM leukemia
COLO 205 colon = system: COLO 205 colon
DU-145 prostate = system: DU-145 prostate
EKVX NSCLC = system: EKVX NSCLC
HCC-2998 colon = system: HCC-2998 colon
HCT-116 colon = system: HCT-116 colon
HCT-15 colon = system: HCT-15 colon
HL-60(TB) leukemia = system: HL-60(TB) leukemia
HOP-62 NSCLC = system: HOP-62 NSCLC
HOP-92 NSCLC = system: HOP-92 NSCLC
HS 578T breast = system: HS 578T breast
HT29 colon = system: HT29 colon
IGROV1 ovarian = system: IGROV1 ovarian
K-562 leukemia = system: K-562 leukemia
KM12 colon = system: KM12 colon
LOX IMVI melanoma = system: LOX IMVI melanoma
M14 melanoma = system: M14 melanoma
MALME-3M melanoma = system: MALME-3M melanoma
MCF7 breast = system: MCF7 breast
MDA-MB-231 breast = system: MDA-MB-231 breast
MDA-MB-435 = system: MDA-MB-435
MOLT-4 leukemia = system: MOLT-4 leukemia
NCI-H226 lung = system: NCI-H226 lung
NCI-H23 lung = system: NCI-H23 lung
NCI-H460 lung = system: NCI-H460 lung
NCI-H522 lung = system: NCI-H522 lung
NCI/ADR-RES ovarian = system: NCI/ADR-RES ovarian
OVCAR-3 ovarian = system: OVCAR-3 ovarian
OVCAR-4 ovarian = system: OVCAR-4 ovarian
OVCAR-5 ovarian = system: OVCAR-5 ovarian
OVCAR-8 ovarian = system: OVCAR-8 ovarian
PC-3 prostate = system: PC-3 prostate
RPMI-8226 leukemia = system: RPMI-8226 leukemia
RXF 393 renal = system: RXF 393 renal
SF-268 CNS = system: SF-268 CNS
SF-295 CNS = system: SF-295 CNS
SF-539 CNS = system: SF-539 CNS
SK-MEL-2 melanoma = system: SK-MEL-2 melanoma
SK-MEL-28 melanoma = system: SK-MEL-28 melanoma
SK-MEL-5 melanoma = system: SK-MEL-5 melanoma
SK-OV-3 ovarian = system: SK-OV-3 ovarian
SN12C renal = system: SN12C renal
SNB-19 CNS = system: SNB-19 CNS
SNB-75 CNS = system: SNB-75 CNS
SR leukemia = system: SR leukemia
SW-620 colon = system: SW-620 colon
T-47D breast = system: T-47D breast
TK-10 renal = system: TK-10 renal
U251 CNS = system: U251 CNS
UACC-257 melanoma = system: UACC-257 melanoma
UACC-62 melanoma = system: UACC-62 melanoma
UO-31 renal = system: UO-31 renal

## Cc1ccc2c(n1)C(=O)C(Cl)=C(Nc1ccc(C#N)cc1)C2=O
786-0 renal
  GI50: 1.74 µM
  TGI: 3.24 µM
A498 renal
  GI50: 16.3 µM
  TGI: > 100 µM
A549 NSCLC
  GI50: 35.6 µM
  TGI: > 100 µM
ACHN renal
  GI50: 1.81 µM
  TGI: 3.3 µM
BT-549 breast
  GI50: 2.8 µM
  TGI: 12 µM
CAKI-1 renal
  GI50: 1.7 µM
  TGI: 3.31 µM
CCRF-CEM leukemia
  GI50: 0.358 µM
  TGI: 2.2 µM
COLO 205 colon
  GI50: 1.66 µM
  TGI: 3.51 µM
DU-145 prostate
  GI50: 2.13 µM
  TGI: 4.48 µM
EKVX NSCLC
  GI50: 2.19 µM
  TGI: 5.59 µM
HCC-2998 colon
  GI50: 3.83 µM
  TGI: 16.1 µM
HCT-116 colon
  GI50: 1.83 µM
  TGI: 3.78 µM
HCT-15 colon
  GI50: 1.74 µM
  TGI: 3.66 µM
HL-60(TB) leukemia
  GI50: 1.08 µM
  TGI: 3.05 µM
HOP-62 NSCLC
  GI50: 17.9 µM
  TGI: 50.7 µM
HOP-92 NSCLC
  GI50: 1.71 µM
  TGI: 3.41 µM
HS 578T breast
  GI50: 14.6 µM
  TGI: 56.1 µM
HT29 colon
  GI50: 3.06 µM
  TGI: 10.6 µM
IGROV1 ovarian
  GI50: 10.7 µM
  TGI: 24.7 µM
K-562 leukemia
  GI50: 0.351 µM
  TGI: 1.87 µM
KM12 colon
  GI50: 19.9 µM
  TGI: > 100 µM
LOX IMVI melanoma
  GI50: 1.53 µM
  TGI: 3.46 µM
M14 melanoma
  GI50: 6.12 µM
  TGI: 21.9 µM
MALME-3M melanoma
  GI50: 1.74 µM
  TGI: 3.36 µM
MCF7 breast
  GI50: 1.9 µM
  TGI: 4.62 µM
MDA-MB-231 breast
  GI50: 5.59 µM
  TGI: 25.8 µM
MDA-MB-435
  GI50: 6.99 µM
  TGI: 22.7 µM
MOLT-4 leukemia
  GI50: 0.47 µM
  TGI: 2.56 µM
NCI-H226 lung
  GI50: 4.36 µM
  TGI: 17.6 µM
NCI-H23 lung
  GI50: 1.84 µM
  TGI: 4.58 µM
NCI-H460 lung
  GI50: 30.2 µM
  TGI: > 100 µM
NCI-H522 lung
  GI50: 1.75 µM
  TGI: 3.75 µM
NCI/ADR-RES ovarian
  GI50: 3.55 µM
  TGI: 17.7 µM
OVCAR-3 ovarian
  GI50: 1.84 µM
  TGI: 3.51 µM
OVCAR-4 ovarian
  GI50: 1.59 µM
  TGI: 3.08 µM
OVCAR-5 ovarian
  GI50: 17.7 µM
  TGI: 34.8 µM
OVCAR-8 ovarian
  GI50: 10.1 µM
  TGI: 28.2 µM
PC-3 prostate
  GI50: 10 µM
  TGI: 25.1 µM
RPMI-8226 leukemia
  GI50: 2.19 µM
  TGI: 5.74 µM
RXF 393 renal
  GI50: 1.45 µM
  TGI: 2.79 µM
SF-268 CNS
  GI50: 8.36 µM
  TGI: 25.6 µM
SF-295 CNS
  GI50: 17.6 µM
  TGI: 39.2 µM
SF-539 CNS
  GI50: 10.2 µM
  TGI: 23 µM
SK-MEL-2 melanoma
  GI50: 11.6 µM
  TGI: 24.6 µM
SK-MEL-28 melanoma
  GI50: 2.46 µM
  TGI: 5.74 µM
SK-MEL-5 melanoma
  GI50: 4.75 µM
  TGI: 17.3 µM
SK-OV-3 ovarian
  GI50: 11.7 µM
  TGI: 27.7 µM
SN12C renal
  GI50: 5.68 µM
  TGI: 25.4 µM
SNB-19 CNS
  GI50: 15.7 µM
  TGI: 39.8 µM
SNB-75 CNS
  GI50: 6.8 µM
  TGI: 34.5 µM
SR leukemia
  GI50: 0.375 µM
  TGI: 2.25 µM
SW-620 colon
  GI50: 1.76 µM
  TGI: 3.87 µM
T-47D breast
  GI50: 1.87 µM
  TGI: 4.79 µM
TK-10 renal
  GI50: 1.83 µM
  TGI: 3.27 µM
U251 CNS
  GI50: 13 µM
  TGI: 28.7 µM
UACC-257 melanoma
  GI50: 1.64 µM
  TGI: 3.17 µM
UACC-62 melanoma
  GI50: 10.1 µM
  TGI: 25.9 µM
UO-31 renal
  GI50: 1.54 µM
  TGI: 2.97 µM
